The record followed here is article PMC3502418 (2012).

For assay [1], the system named is DNA1-A (DNA, mismatch bulge abasic, abasic site (dSpacer, tetrahydrofuran residue) at X, opposite A, flanked by T; position in Figure 1B) ATGGTGTNTGCAGCG/CGCTGCAAACACCAT
The assay can be described thus: UV melting at 260 nm. The note with it: 0.1 M phosphate, 1 mM EDTA, pH 8.3 or 7.0 (unclear); 5 µM SG, 5 µM DNA.

The subject of assay [2] is DNA1-G (DNA, mismatch bulge abasic, abasic site (dSpacer, tetrahydrofuran residue) at X, opposite G, flanked by T; position in Figure 1B) ATGGTGTNTGCAGCG/CGCTGCAGACACCAT
The assay is described as follows: UV melting at 260 nm. The following applies: 0.1 M phosphate, 1 mM EDTA, pH 8.3 or 7.0 (unclear); 5 µM SG, 5 µM DNA.

In assay [3] the test system is DNA1-T (DNA, mismatch bulge abasic, abasic site (dSpacer, tetrahydrofuran residue) at X, opposite T, flanked by T; position in Figure 1B) ATGGTGTNTGCAGCG/CGCTGCATACACCAT
The assay can be described thus: UV melting at 260 nm. The following applies: 0.1 M phosphate, 1 mM EDTA, pH 8.3 or 7.0 (unclear); 5 µM SG, 5 µM DNA.

Assay [4] relates to DNA2-C (DNA, mismatch bulge abasic, abasic site (dSpacer, tetrahydrofuran residue) at X, opposite C, flanked by A; position in Figure 1B) ATGGTGANAGCAGCG/CGCTGCTCTCACCAT
The assay is described as follows: UV melting at 260 nm. The note with it: 0.1 M phosphate, 1 mM EDTA, pH 8.3 or 7.0 (unclear); 5 µM SG, 5 µM DNA.

The test system of assay [5] is DNA2-A (DNA, mismatch bulge abasic, abasic site (dSpacer, tetrahydrofuran residue) at X, opposite A, flanked by A; position in Figure 1B) ATGGTGANAGCAGCG/CGCTGCTATCACCAT
The assay can be described thus: UV melting at 260 nm. The following applies: 0.1 M phosphate, 1 mM EDTA, pH 8.3 or 7.0 (unclear); 5 µM SG, 5 µM DNA.

The subject of assay [6] is DNA3-T (DNA, mismatch bulge abasic, abasic site (dSpacer, tetrahydrofuran residue) at X, opposite T, flanked by G; position in Figure 1B) ATGGTGGNGGCAGCG/CGCTGCCTCCACCAT
The assay is described as follows: UV melting at 260 nm. The following applies: 0.1 M phosphate, 1 mM EDTA, pH 8.3 or 7.0 (unclear); 5 µM SG, 5 µM DNA.

The test system of assay [7] is DNA3-G (DNA, mismatch bulge abasic, abasic site (dSpacer, tetrahydrofuran residue) at X, opposite G, flanked by G; position in Figure 1B) ATGGTGGNGGCAGCG/CGCTGCCGCCACCAT
The assay can be described thus: UV melting at 260 nm. The note with it: 0.1 M phosphate, 1 mM EDTA, pH 8.3 or 7.0 (unclear); 5 µM SG, 5 µM DNA.

In assay [8] the test system is DNA4-C (DNA, mismatch bulge abasic, abasic site (dSpacer, tetrahydrofuran residue) at X, opposite C, flanked by C; position in Figure 1B) ATGGTGCNCGCAGCG/CGCTGCGCGCACCAT
The assay can be described thus: UV melting at 260 nm. The note with it: 0.1 M phosphate, 1 mM EDTA, pH 8.3 or 7.0 (unclear); 5 µM SG, 5 µM DNA.

Assay [9] relates to DNA4-G (DNA, mismatch bulge abasic, abasic site (dSpacer, tetrahydrofuran residue) at X, opposite G, flanked by C; position in Figure 1B) ATGGTGCNCGCAGCG/CGCTGCGGGCACCAT
The assay is described as follows: UV melting at 260 nm. The note with it: 0.1 M phosphate, 1 mM EDTA, pH 8.3 or 7.0 (unclear); 5 µM SG, 5 µM DNA.

Assay [10] concerns mismatched DNA (DNA1, X = T, Y = C) (DNA, mismatch bulge abasic) ATGGTGTTTGCAGCG/CGCTGCACACACCAT
The assay can be described thus: fluorescence enhancement at 586 nm. The note with it: 0.1 M phosphate, pH 8.3 presumed; 5 µM SG; up to 5 µM DNA; weaker than DNA1-C.

Assay [11] has as its system DNA1-C (DNA, mismatch bulge abasic, abasic site (dSpacer, tetrahydrofuran residue) at X, opposite C, flanked by T; position in Figure 1B) ATGGTGTNTGCAGCG/CGCTGCACACACCAT
The assay is described as follows: fluorescence titration (586 nm), Scatchard. The following applies: 0.1 M phosphate, 1 mM EDTA; pH 8.3 presumed; 1 µM SG; strongest site only.

For `C[n+]1cc2c3c(ccc2c2ccc4cc5c(cc4c21)OCO5)OCO3`, the ΔT in assay [1] stood at 1.9 °C; in assay [2] it was 1.9 °C; in assay [3], 3.8 °C; in assay [4] it was 5.4 °C; in [5], 3.0 °C; in assay [6], 5.7 °C. Also, the ΔT in assay [7] was 2.4 °C; in assay [8] it was 5.2 °C; in assay [9], 2.4 °C. The binding result in [10] is given as “yes”. Besides, in assay [11], the binding constant is listed as 1.7±0.15×10^7 M^−1.
